Laboratory results as given in PubChem BioAssay (NCI).
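Five concentrations, 48 hours, 96-well plates. GI50 is the concentration that inhibits growth by half. TGI marks complete inhibition of growth.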

Tests used:
Test in all cases: growth of human tumour cells (NCI), 48 h
786-0 renal = test system: 786-0 renal
A498 renal = test system: A498 renal
A549 NSCLC = test system: A549 NSCLC
ACHN renal = test system: ACHN renal
BT-549 breast = test system: BT-549 breast
CAKI-1 renal = test system: CAKI-1 renal
CCRF-CEM leukemia = test system: CCRF-CEM leukemia
COLO 205 colon = test system: COLO 205 colon
DU-145 prostate = test system: DU-145 prostate
HCC-2998 colon = test system: HCC-2998 colon
HCT-116 colon = test system: HCT-116 colon
HCT-15 colon = test system: HCT-15 colon
HL-60(TB) leukemia = test system: HL-60(TB) leukemia
HOP-62 NSCLC = test system: HOP-62 NSCLC
HOP-92 NSCLC = test system: HOP-92 NSCLC
HS 578T breast = test system: HS 578T breast
HT29 colon = test system: HT29 colon
IGROV1 ovarian = test system: IGROV1 ovarian
K-562 leukemia = test system: K-562 leukemia
KM12 colon = test system: KM12 colon
LOX IMVI melanoma = test system: LOX IMVI melanoma
M14 melanoma = test system: M14 melanoma
MALME-3M melanoma = test system: MALME-3M melanoma
MCF7 breast = test system: MCF7 breast
MDA-MB-231 breast = test system: MDA-MB-231 breast
MDA-MB-435 = test system: MDA-MB-435
MOLT-4 leukemia = test system: MOLT-4 leukemia
NCI-H226 lung = test system: NCI-H226 lung
NCI-H23 lung = test system: NCI-H23 lung
NCI-H460 lung = test system: NCI-H460 lung
NCI-H522 lung = test system: NCI-H522 lung
NCI/ADR-RES ovarian = test system: NCI/ADR-RES ovarian
OVCAR-3 ovarian = test system: OVCAR-3 ovarian
OVCAR-4 ovarian = test system: OVCAR-4 ovarian
OVCAR-5 ovarian = test system: OVCAR-5 ovarian
OVCAR-8 ovarian = test system: OVCAR-8 ovarian
PC-3 prostate = test system: PC-3 prostate
RPMI-8226 leukemia = test system: RPMI-8226 leukemia
RXF 393 renal = test system: RXF 393 renal
SF-268 CNS = test system: SF-268 CNS
SF-539 CNS = test system: SF-539 CNS
SK-MEL-2 melanoma = test system: SK-MEL-2 melanoma
SK-MEL-28 melanoma = test system: SK-MEL-28 melanoma
SK-MEL-5 melanoma = test system: SK-MEL-5 melanoma
SK-OV-3 ovarian = test system: SK-OV-3 ovarian
SN12C renal = test system: SN12C renal
SNB-19 CNS = test system: SNB-19 CNS
SR leukemia = test system: SR leukemia
SW-620 colon = test system: SW-620 colon
T-47D breast = test system: T-47D breast
TK-10 renal = test system: TK-10 renal
U251 CNS = test system: U251 CNS
UACC-257 melanoma = test system: UACC-257 melanoma
UACC-62 melanoma = test system: UACC-62 melanoma
UO-31 renal = test system: UO-31 renal
EKVX NSCLC = test system: EKVX NSCLC
MDA-N = test system: MDA-N
SF-295 CNS = test system: SF-295 CNS
SNB-75 CNS = test system: SNB-75 CNS

## COc1cc(-c2nc(-c3nc4ccccc4[nH]3)cc3c2[nH]c2ccccc23)cc(OC)c1OC
786-0 renal
  GI50: 50.7 µM
  TGI: > 100 µM
A498 renal
  GI50: 2.43 µM
  TGI: > 100 µM
A549 NSCLC
  GI50: 3.2 µM
  TGI: > 100 µM
ACHN renal
  GI50: 4.86 µM
  TGI: > 100 µM
BT-549 breast
  GI50: 5.48 µM
  TGI: > 100 µM
CAKI-1 renal
  GI50: 7.03 µM
  TGI: > 100 µM
CCRF-CEM leukemia
  GI50: 3.96 µM
  TGI: > 100 µM
COLO 205 colon
  GI50: 4.58 µM
  TGI: > 100 µM
DU-145 prostate
  GI50: 6.27 µM
  TGI: > 100 µM
HCC-2998 colon
  GI50: 7.32 µM
  TGI: > 100 µM
HCT-116 colon
  GI50: 3.95 µM
  TGI: > 100 µM
HCT-15 colon
  GI50: 4.14 µM
  TGI: > 100 µM
HL-60(TB) leukemia
  GI50: 4.37 µM
  TGI: > 100 µM
HOP-62 NSCLC
  GI50: 5.87 µM
  TGI: > 100 µM
HOP-92 NSCLC
  GI50: 0.526 µM
  TGI: 5.38 µM
HS 578T breast
  GI50: 4.44 µM
  TGI: > 100 µM
HT29 colon
  GI50: 6.87 µM
  TGI: > 100 µM
IGROV1 ovarian
  GI50: 2.94 µM
  TGI: > 100 µM
K-562 leukemia
  GI50: 4.33 µM
  TGI: > 100 µM
KM12 colon
  GI50: 3.67 µM
  TGI: > 100 µM
LOX IMVI melanoma
  GI50: 4.72 µM
  TGI: > 100 µM
M14 melanoma
  GI50: 4.18 µM
  TGI: > 100 µM
MALME-3M melanoma
  GI50: 4.31 µM
  TGI: > 100 µM
MCF7 breast
  GI50: 4.11 µM
  TGI: > 100 µM
MDA-MB-231 breast
  GI50: 8.38 µM
  TGI: > 100 µM
MDA-MB-435
  GI50: 3.65 µM
  TGI: > 100 µM
MOLT-4 leukemia
  GI50: 3.93 µM
  TGI: > 100 µM
NCI-H226 lung
  GI50: 7.19 µM
  TGI: > 100 µM
NCI-H23 lung
  GI50: 4.4 µM
  TGI: > 100 µM
NCI-H460 lung
  GI50: 3.96 µM
  TGI: > 100 µM
NCI-H522 lung
  GI50: 3.51 µM
  TGI: > 100 µM
NCI/ADR-RES ovarian
  GI50: 3.59 µM
  TGI: > 100 µM
OVCAR-3 ovarian
  GI50: 6.2 µM
  TGI: > 100 µM
OVCAR-4 ovarian
  GI50: 47.4 µM
  TGI: > 100 µM
OVCAR-5 ovarian
  GI50: > 100 µM
  TGI: > 100 µM
OVCAR-8 ovarian
  GI50: 2.79 µM
  TGI: > 100 µM
PC-3 prostate
  GI50: 2.64 µM
  TGI: > 100 µM
RPMI-8226 leukemia
  GI50: 2.15 µM
  TGI: 8.61 µM
RXF 393 renal
  GI50: 3.25 µM
  TGI: > 100 µM
SF-268 CNS
  GI50: 4.81 µM
  TGI: > 100 µM
SF-539 CNS
  GI50: 23.1 µM
  TGI: > 100 µM
SK-MEL-2 melanoma
  GI50: 3.58 µM
  TGI: > 100 µM
SK-MEL-28 melanoma
  GI50: 6.89 µM
  TGI: > 100 µM
SK-MEL-5 melanoma
  GI50: 2.99 µM
  TGI: > 100 µM
SK-OV-3 ovarian
  GI50: > 100 µM
  TGI: > 100 µM
SN12C renal
  GI50: 6.27 µM
  TGI: > 100 µM
SNB-19 CNS
  GI50: 9.45 µM
  TGI: > 100 µM
SR leukemia
  GI50: 9.5 µM
  TGI: > 100 µM
SW-620 colon
  GI50: 7.14 µM
  TGI: > 100 µM
T-47D breast
  GI50: 2.92 µM
  TGI: > 100 µM
TK-10 renal
  GI50: 4.71 µM
  TGI: > 100 µM
U251 CNS
  GI50: 4.76 µM
  TGI: > 100 µM
UACC-257 melanoma
  GI50: 3.57 µM
  TGI: > 100 µM
UACC-62 melanoma
  GI50: 3.38 µM
  TGI: > 100 µM
UO-31 renal
  GI50: 3.62 µM
  TGI: > 100 µM

## O=C(O)CCC(=O)c1ccc(Cl)cc1
786-0 renal
  TGI: > 100 µM
A549 NSCLC
  TGI: > 100 µM
CAKI-1 renal
  TGI: > 100 µM
CCRF-CEM leukemia
  TGI: > 100 µM
COLO 205 colon
  TGI: > 100 µM
DU-145 prostate
  TGI: > 100 µM
EKVX NSCLC
  TGI: > 100 µM
HCT-116 colon
  TGI: > 100 µM
HL-60(TB) leukemia
  TGI: > 100 µM
HOP-62 NSCLC
  TGI: > 100 µM
HOP-92 NSCLC
  TGI: > 100 µM
HT29 colon
  TGI: > 100 µM
IGROV1 ovarian
  TGI: > 100 µM
K-562 leukemia
  TGI: > 100 µM
KM12 colon
  TGI: > 100 µM
LOX IMVI melanoma
  TGI: > 100 µM
M14 melanoma
  TGI: > 100 µM
MDA-MB-435
  TGI: > 100 µM
MDA-N
  TGI: > 100 µM
MOLT-4 leukemia
  TGI: > 100 µM
NCI-H226 lung
  TGI: > 100 µM
OVCAR-3 ovarian
  TGI: > 100 µM
OVCAR-4 ovarian
  TGI: > 100 µM
OVCAR-5 ovarian
  TGI: > 100 µM
OVCAR-8 ovarian
  TGI: > 100 µM
RPMI-8226 leukemia
  TGI: > 100 µM
RXF 393 renal
  TGI: > 100 µM
SF-295 CNS
  TGI: > 100 µM
SF-539 CNS
  TGI: > 100 µM
SK-MEL-28 melanoma
  TGI: > 100 µM
SK-MEL-5 melanoma
  TGI: > 100 µM
SK-OV-3 ovarian
  TGI: > 100 µM
SN12C renal
  TGI: > 100 µM
SNB-19 CNS
  TGI: > 100 µM
SNB-75 CNS
  TGI: > 100 µM
SR leukemia
  TGI: > 100 µM
SW-620 colon
  TGI: > 100 µM
T-47D breast
  TGI: > 100 µM
UO-31 renal
  TGI: > 100 µM
